From publication PMC8253220, “Molecular design, synthesis and in vitro biological evaluation of thienopyrimidine–hydroxamic acids as chimeric kinase HDAC inhibitors: a challenging approach to combat cancer” (Journal of Enzyme Inhibition and Medicinal Chemistry, 2021)
Values joined by “and” are separate entries in the source; they are usually repeats but may differ in a detail not shown here. Equal values may be shown once.

Columns and labels:
Hela nuclear extracts = assay: Hela nuclear extract HDAC inhibitor assay (BPS Bioscience); type: biochemical; conditions: 10 µM
Method: The purpose of the study is to determine the effects of twenty compounds from Misr International University on the enzymatic activities of hela nuclear extracts using an in vitro […]
7a Solution 10mM DMSO 10 10 % DMSO in
7b Solution 10mM DMSO 10 10 % DMSO in
7d Solution 10mM DMSO 10 10 % DMSO in
2.3 Experimental Conditions
2.3.1 Enzymes and Substrates
Assay Catalog # Substrate
Hela Nuclear Exctract 50053 10 µM HDAC Substrate 3
For the hela nuclear extracts, hela cells were grown to 90 % confluency. Hela nuclear extracts were prepared from the Nuclear Extraction Kit from abcam (Catalog # ab113474). The final total protein concentration was calculated to be 2.4 µg/µl. From this, the hela nuclear extracts was diluted 20-fold in HDAC assay buffer and 5 µl of the dilution was added to a 50 µl reaction.
The compounds are dissolved in DMSO. A series of dilutions of the compounds were prepared with 10% DMSO in HDAC assay buffer and 5 µl of the dilution was added to a 50 µl reaction so that the final concentration of DMSO is 1 % in all of […]
The enzymatic reactions for the hela nuclear extract were conducted in duplicate at 37 °C for 60 minutes in a 50 µl mixture containing HDAC assay buffer, 5 µg BSA, an HDAC substrate (see 2.3.1), hela nuclear extract, and a test compound (see 2.2).
After enzymatic reactions, 50μl of 2 x HDAC Developer was added to each well for the hela nuclear extract and the plate was incubated at room temperature for an additional 15 […]
Fluorescence intensity was measured at an excitation of 360 nm and an emission of 460 nm using a Tecan Infinite M1000 microplate reader.
Hela nuclear extract activity assays were performed in duplicates at each concentration.
The fluorescent intensity data were analyzed using the computer software, Graphpad Prism. In the absence of the compound, the fluorescent intensity (Ft) in each data set was defined as 100% activity. In the absence of hela nuclear extract, the fluorescent intensity (Fb) in each data set was defined as 0% activity. The percent activity in the presence of each compound was calculated according to the following equation: %activity = (F-Fb)/(Ft-Fb), where F= the fluorescent intensity in the presence of the compound.
The values of percentage activity were plotted on a bar graph.

A549/ATCC = assay: NCI one-dose screen; type: cell-based, human; conditions: NSCLC A549/ATCC, 10 µM single dose
Method: (§1) All of the synthesised structures were selected and submitted to NCI based on computer modelling techniques and the degree of diversity of structures for the evaluation of their antiproliferative activity. The 20 synthesised compounds were selected with their respective NCI codes [NCS D-820157- NCS D-820176] for the inhibition percent assay at an initial single dose of 10 μM on the full NCI 60 cell panel, where the mean graph of the percent growth for all compounds on the full NCI cell panel is evaluated, compared to the untreated control cells (Supplementary Material). In vitro cell line inhibition % of all synthesised compounds is represented in (Table 1 of Supplementary Material).
(§2) All of the synthesised compounds (20) were submitted to NCI and selected for in vitro anticancer assay against a panel of 60 cancer cell lines. The methodology of assay and calculations is as reported.

CAKI-1 = assay: NCI one-dose screen; type: cell-based, human; conditions: Renal CAKI-1, 10 µM single dose
Method: as §1, §2

HCT-116 = assay: NCI one-dose screen; type: cell-based, human; conditions: Colon HCT-116, 10 µM single dose
Method: as §1, §2

HL-60(TB) = assay: NCI one-dose screen; type: cell-based, human; conditions: Leukemia HL-60(TB), 10 µM single dose
Method: as §1, §2

HS 578T = assay: NCI one-dose screen; type: cell-based, human; conditions: Breast HS 578T, 10 µM single dose
Method: as §1, §2

HT29 = assay: NCI one-dose screen; type: cell-based, human; conditions: Colon HT29, 10 µM single dose
Method: as §1, §2

KM12 = assay: NCI one-dose screen; type: cell-based, human; conditions: Colon KM12, 10 µM single dose
Method: as §1, §2

M14 = assay: NCI one-dose screen; type: cell-based, human; conditions: Melanoma M14, 10 µM single dose
Method: as §1, §2

MDA-MB-435 = assay: NCI one-dose screen; type: cell-based, human; conditions: Melanoma MDA-MB-435, 10 µM single dose
Method: as §1, §2

MOLT-4 = assay: NCI one-dose screen; type: cell-based, human; conditions: Leukemia MOLT-4, 10 µM single dose
Method: as §1, §2

NCI-H322M = assay: NCI one-dose screen; type: cell-based, human; conditions: NSCLC NCI-H322M, 10 µM single dose
Method: as §1, §2

NCI-H460 = assay: NCI one-dose screen; type: cell-based, human; conditions: NSCLC NCI-H460, 10 µM single dose
Method: as §1, §2

NCI/ADR-RES = assay: NCI one-dose screen; type: cell-based, human; conditions: Ovarian NCI/ADR-RES, 10 µM single dose
Method: as §1, §2

RPMI-8226 = assay: NCI one-dose screen; type: cell-based, human; conditions: Leukemia RPMI-8226, 10 µM single dose
Method: as §1, §2

SF-295 = assay: NCI one-dose screen; type: cell-based, human; conditions: CNS SF-295, 10 µM single dose
Method: as §1, §2

SF-539 = assay: NCI one-dose screen; type: cell-based, human; conditions: CNS SF-539, 10 µM single dose
Method: as §1, §2

SK-MEL-2 = assay: NCI one-dose screen; type: cell-based, human; conditions: Melanoma SK-MEL-2, 10 µM single dose
Method: as §1, §2

SK-OV-3 = assay: NCI one-dose screen; type: cell-based, human; conditions: Ovarian SK-OV-3, 10 µM single dose
Method: as §1, §2

SNB-19 = assay: NCI one-dose screen; type: cell-based, human; conditions: CNS SNB-19, 10 µM single dose
Method: as §1, §2

SR = assay: NCI one-dose screen; type: cell-based, human; conditions: Leukemia SR, 10 µM single dose
Method: as §1, §2

T-47D = assay: NCI one-dose screen; type: cell-based, human; conditions: Breast T-47D, 10 µM single dose
Method: as §1, §2

UACC-257 = assay: NCI one-dose screen; type: cell-based, human; conditions: Melanoma UACC-257, 10 µM single dose
Method: as §1, §2

UACC-62 = assay: NCI one-dose screen; type: cell-based, human; conditions: Melanoma UACC-62, 10 µM single dose
Method: as §1, §2

UO-31 = assay: NCI one-dose screen; type: cell-based, human; conditions: for Growth Percent: Renal UO-31, 10 µM single dose
Method: as §1, §2

Cc1c(C(=O)NCCC(=O)NO)sc2ncnc(Nc3ccccc3)c12 [Compound 19b, N-(3-(hydroxyamino)-3-oxopropyl)-5-methyl-4-(phenylamino)thieno[2,3-d]pyrimidine-6-carboxamide]
% Inhibition Hela Nuclear Extracts (Hela nuclear extracts): 5% | Growth Percent (A549/ATCC): 98.3% | Growth Percent (CAKI-1): 96.2% and 96.21% | Growth Percent (HCT-116): 105.6% and 105.69% | Growth Percent (HL-60(TB)): 103.7% | Growth Percent (HS 578T): 103.8% and 103.85% | Growth Percent (HT29): 104.9% and 104.96% | Growth Percent (KM12): 101.9% and 101.98% | Growth Percent (M14): 106.1% and 106.19% | Growth Percent (MDA-MB-435): 102.9% and 102.98% | Growth Percent (MOLT-4): 107.4% and 107.47% | Growth Percent (NCI-H322M): 99.0% and 99.06% | Growth Percent (NCI-H460): 100.8% and 100.82% | Growth Percent (NCI/ADR-RES): 97.2% and 97.26% | Growth Percent (RPMI-8226): 103.3% and 103.33% | Growth Percent (SF-295): 91.8% and 91.88% | Growth Percent (SF-539): 93.6% and 93.63% | Growth Percent (SK-MEL-2): 108.6% and 108.65% | Growth Percent (SK-OV-3): 122.0% and 122.03% | Growth Percent (SNB-19): 99.8% and 99.82% | Growth Percent (SR): 104.5% and 104.58% | Growth Percent (T-47D): 101.18% | Growth Percent (UACC-257): 105.0% and 105.04% | Growth Percent (UACC-62): 95.6% and 95.69% | Growth Percent (UO-31): 86.4% and 86.41%

Cc1c(C(=O)NO)sc2ncnc(Nc3ccc(Cl)cc3)c12 [Compound 15c, 4–(4-chlorophenylamino)-N-hydroxy-5-methylthieno[2,3-d]pyrimidine-6-carboxamide]
% Inhibition Hela Nuclear Extracts (Hela nuclear extracts): 4% | Growth Percent (A549/ATCC): 105.8% and 105.88% | Growth Percent (CAKI-1): 86.4% and 86.45% | Growth Percent (HCT-116): 100.9% and 100.92% | Growth Percent (HL-60(TB)): 104.9% and 104.93% | Growth Percent (HS 578T): 102.5% and 102.54% | Growth Percent (HT29): 101.8% and 101.84% | Growth Percent (KM12): 100.9% and 100.92% | Growth Percent (M14): 107.8% and 107.86% | Growth Percent (MDA-MB-435): 102.4% and 102.42% | Growth Percent (MOLT-4): 102.3% and 102.36% | Growth Percent (NCI-H322M): 97.2% and 97.24% | Growth Percent (NCI-H460): 98.9% and 98.93% | Growth Percent (NCI/ADR-RES): 102.1% and 102.16% | Growth Percent (RPMI-8226): 104.3% and 104.38% | Growth Percent (SF-295): 102.7% and 102.79% | Growth Percent (SF-539): 104.0% | Growth Percent (SK-MEL-2): 94.5% and 94.54% | Growth Percent (SK-OV-3): 93.4% and 93.42% | Growth Percent (SNB-19): 94.8% and 94.85% | Growth Percent (SR): 102.7% and 102.79% | Growth Percent (T-47D): 90.6% and 90.65% | Growth Percent (UACC-257): 110.0% and 110.09% | Growth Percent (UACC-62): 92.4% and 92.45% | inhibition at 10 µM (UO-31; Homo sapiens, renal UO-31, 10 μM): 28.8% | Growth Percent (UO-31): 71.2%

Cc1c(C(=O)NO)sc2ncnc(Nc3ccc(F)c(Cl)c3)c12 [Compound 15d, 4–(3-chloro-4-fluorophenylamino)-N-hydroxy-5-methylthieno[2,3-d]pyrimidine-6-carboxamide]
% Inhibition Hela Nuclear Extracts (Hela nuclear extracts): 4% | Growth Percent (A549/ATCC): 100.7% and 100.72% | Growth Percent (CAKI-1): 90.4% and 90.42% | Growth Percent (HCT-116): 106.8% | Growth Percent (HL-60(TB)): 101.9% and 101.99% | Growth Percent (HS 578T): 102.4% and 102.42% | Growth Percent (HT29): 102.5% and 102.54% | Growth Percent (KM12): 102.3% and 102.31% | Growth Percent (M14): 110.2% and 110.24% | Growth Percent (MDA-MB-435): 101.0% and 101.03% | Growth Percent (MOLT-4): 110.0% and 110.03% | Growth Percent (NCI-H322M): 107.6% and 107.66% | Growth Percent (NCI-H460): 101.5% and 101.54% | Growth Percent (NCI/ADR-RES): 99.6% and 99.61% | Growth Percent (SF-295): 93.7% and 93.74% | Growth Percent (SF-539): 98.5% and 98.57% | Growth Percent (SK-MEL-2): 100.9% | Growth Percent (SK-OV-3): 114.4% and 114.45% | Growth Percent (SNB-19): 91.8% | Growth Percent (SR): 101.4% and 101.45% | Growth Percent (T-47D): 95.4% and 95.46% | Growth Percent (UACC-257): 109.9% and 109.91% | Growth Percent (UACC-62): 88.5% and 88.53% | Growth Percent (UO-31): 77.0% and 77.07%

Cc1c(C(=O)NO)sc2ncnc(Nc3ccc(NC(=S)Nc4ccccc4)cc3)c12 [Compound 7d, 1–(4-(6-(hydroxycarbamoyl)-5-methylthieno[2,3-d]pyrimidin-4-ylamino)phenyl)-3-phenylthiourea]
% Inhibition Hela Nuclear Extracts (Hela nuclear extracts): 3% | Growth Percent (A549/ATCC): 101.3% and 101.33% | Growth Percent (CAKI-1): 96.5% and 96.56% | Growth Percent (HCT-116): 105.2% and 105.28% | Growth Percent (HL-60(TB)): 102.7% and 102.72% | Growth Percent (HS 578T): 104.5% and 104.57% | Growth Percent (HT29): 102.7% and 102.73% | Growth Percent (KM12): 102.1% and 102.11% | Growth Percent (M14): 104.3% | Growth Percent (MDA-MB-435): 101.3% and 101.34% | Growth Percent (MOLT-4): 111.3% and 111.35% | Growth Percent (NCI-H322M): 107.3% and 107.32% | Growth Percent (NCI-H460): 102.0% and 102.05% | Growth Percent (NCI/ADR-RES): 99.5% and 99.55% | Growth Percent (SF-295): 98.3% and 98.32% | Growth Percent (SF-539): 100.3% and 100.31% | Growth Percent (SK-MEL-2): 104.1% and 104.16% | Growth Percent (SK-OV-3): 120.7% and 120.74% | Growth Percent (SNB-19): 96.4% and 96.45% | Growth Percent (SR): 110.3% and 110.34% | Growth Percent (T-47D): 112.9% and 112.91% | Growth Percent (UACC-257): 99.4% and 99.45% | Growth Percent (UACC-62): 94.9% and 94.97% | Growth Percent (UO-31): 85.0% and 85.06%
